Earlier results, collected in patent EP4616878A1, “CANNULA FOR RECTAL ADMINISTRATION OF AN ENEMA AND COMPOSITIONS FOR USE THEREWITH” (Cosmo Technologies Ltd., priority 2024, dated 2025).

Assays:
[1] = molecular target: T1, pregnane X receptor (PXR) (Homo sapiens, UniProt O75469); conditions: liver and intestinal cell lines; also downstream targets CYP3A4 and PgP
T1 sequence (O75469 1-434): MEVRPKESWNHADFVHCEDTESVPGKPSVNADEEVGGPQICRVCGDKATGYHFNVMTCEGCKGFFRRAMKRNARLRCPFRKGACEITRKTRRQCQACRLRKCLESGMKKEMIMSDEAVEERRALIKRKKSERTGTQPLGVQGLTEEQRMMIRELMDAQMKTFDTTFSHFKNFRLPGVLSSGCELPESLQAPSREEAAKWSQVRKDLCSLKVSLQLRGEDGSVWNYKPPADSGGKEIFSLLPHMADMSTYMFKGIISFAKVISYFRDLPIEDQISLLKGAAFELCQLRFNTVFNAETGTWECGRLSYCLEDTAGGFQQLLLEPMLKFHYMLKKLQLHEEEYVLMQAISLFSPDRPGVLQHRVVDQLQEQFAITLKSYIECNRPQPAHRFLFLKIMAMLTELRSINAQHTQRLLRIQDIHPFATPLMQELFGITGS

[2] = tested on: nuclear factor-KB (NFκB); conditions: cell line which lacks PXR expression
[3] = in vivo

CO[C@H]1/C=C/O[C@@]2(C)Oc3c(C)c(O)c4c(O)c(cc(O)c4c3C2=O)NC(=O)/C(C)=C\C=C\[C@H](C)[C@H](O)[C@@H](C)[C@@H](O)[C@@H](C)[C@H](OC(C)=O)[C@@H]1C [Rifamycin, Rifamycin SV]
effect on PXR [1]: activate | effect on NFκB [2]: directly inhibited | absorption in the bloodstream [3]: negligible
